Measured values taken from patent EP4741383A1, “COMPOUND AND USE THEREOF AS ANTI-CANCER DRUG” (Tyligand Bioscience (Shanghai) Limited, priority 2023, dated 2025).

Target: T1, hERG potassium channel (Homo sapiens, UniProt Q12809)
T1 construct: host or cells: HEK-293
Assay: hERG manual patch-clamp assay in HEK-293 cells
Assay type: cell-based
Details: HEK-293 cells stably expressing the hERG potassium channel, HEK-293 cells stably expressing hERG
From the text: This experiment was a non-GLP trial conducted with reference to GLP guidelines and in accordance with the following technical guidelines: National Medical Products Administration: Technical Guidelines for Non-Clinical Studies of Potential Effects of Drugs on QT Interval Prolongation (2014), and ICH S7B Guidelines for Non-Clinical Evaluation of Potential Drug-Induced Delayed Ventricular Repolarization (QT Interval Prolongation) in Humans (2005).
Sample preparation: the weighed test substance was prepared into a 5 mM or 10 mM stock solution with DMSO, then diluted with DMSO to a 3.33 mM diluent. The stock solution was then diluted with extracellular fluid to prepare a 10 µM working solution, ensuring a DMSO concentration of 0.3%. The solution was sonicated for 20 min. The solubility of the test sample was visually inspected; all concentrations dissolved completely without any visible precipitate.
Preparation of positive control: 3.99 mg Cisapride (positive control) was prepared into a 10 mM stock solution using 807.96 µL DMSO. This stock solution was then successively diluted with DMSO to 1000, 333.33, 33.33, 3.33, and 0.33 µM dilutions. Before testing, 30 µL of each of the last four dilutions was added to 10 mL of extracellular fluid, ensuring a DMSO concentration of 0.3%. The final working solution concentrations of Cisapride were 1000, 100, 10, and 1 nM. Cisapride was visually inspected for solubility; all concentrations dissolved completely without any visible precipitate.
The blank control stock solution (DMSO) should be stored at room temperature. The blank control working solution should be prepared on the same day and stored at room temperature. The test substance and positive control stock solutions should be stored at -20 °C. […]
The hERG activity of the representative compounds of this disclosure was detected using conventional manual patch-clamp techniques in the art (Patch-Clamp Methods and Protocols, 2014, 2nd edition, Humana Press, edited by Marzia Martina and Stefano Taverna).

T1 sequence (Q12809 whole entry): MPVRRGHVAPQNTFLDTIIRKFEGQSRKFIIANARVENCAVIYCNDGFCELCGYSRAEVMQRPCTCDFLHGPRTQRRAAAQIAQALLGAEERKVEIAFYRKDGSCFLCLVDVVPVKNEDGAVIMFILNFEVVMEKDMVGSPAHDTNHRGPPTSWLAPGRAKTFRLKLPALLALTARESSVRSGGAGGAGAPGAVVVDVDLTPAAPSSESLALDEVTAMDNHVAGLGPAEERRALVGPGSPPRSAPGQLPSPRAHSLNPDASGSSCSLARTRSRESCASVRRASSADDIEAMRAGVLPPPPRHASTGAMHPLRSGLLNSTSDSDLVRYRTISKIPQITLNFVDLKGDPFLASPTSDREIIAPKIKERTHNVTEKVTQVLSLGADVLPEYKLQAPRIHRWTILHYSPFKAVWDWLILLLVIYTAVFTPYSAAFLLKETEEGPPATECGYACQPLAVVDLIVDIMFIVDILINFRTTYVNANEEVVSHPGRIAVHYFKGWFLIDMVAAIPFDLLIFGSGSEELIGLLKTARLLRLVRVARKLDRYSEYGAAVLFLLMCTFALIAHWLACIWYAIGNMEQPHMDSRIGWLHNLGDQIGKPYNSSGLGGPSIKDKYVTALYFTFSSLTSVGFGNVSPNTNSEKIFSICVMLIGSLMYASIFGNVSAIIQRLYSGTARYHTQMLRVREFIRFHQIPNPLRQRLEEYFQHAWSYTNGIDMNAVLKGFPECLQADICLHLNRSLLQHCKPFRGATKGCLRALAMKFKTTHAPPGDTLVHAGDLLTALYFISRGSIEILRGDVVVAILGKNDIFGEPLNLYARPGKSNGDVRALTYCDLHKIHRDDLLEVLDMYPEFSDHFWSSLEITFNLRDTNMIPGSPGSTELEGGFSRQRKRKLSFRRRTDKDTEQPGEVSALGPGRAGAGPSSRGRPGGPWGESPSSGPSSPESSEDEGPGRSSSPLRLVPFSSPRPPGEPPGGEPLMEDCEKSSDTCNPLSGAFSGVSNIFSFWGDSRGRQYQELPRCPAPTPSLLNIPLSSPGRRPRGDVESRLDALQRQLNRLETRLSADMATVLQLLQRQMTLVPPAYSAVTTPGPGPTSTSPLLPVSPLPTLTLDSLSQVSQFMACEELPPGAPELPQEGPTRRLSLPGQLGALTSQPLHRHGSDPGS

For `O=C(Nc1ccc(-c2cc3cc(F)c(-c4nnn[nH]4)cc3n2C2CCC2)cc1)C(=O)Nc1ccc(N2CCC(CO)CC2)cc1` [Example 23], which inhibition at 10 µM is on record?
The inhibition at 10 µM was -0.72%.

For `O=C(Nc1ccc(-c2cc3cc(F)c(-c4nnn[nH]4)cc3n2C2CCC2)cc1)C(=O)Nc1ccc(N2CCC3(CCOC3)CC2)cc1` [Example 67], which inhibition at 10 µM is on record?
Its inhibition at 10 µM is 16.9%.

For `CC1(n2c(-c3ccc(NC(=O)C(=O)Nc4ccc(N5CCC6(CCOC6)CC5)cc4)cc3)cc3cc(F)c(-c4nnn[nH]4)cc32)CCC1` [Example 68], which inhibition at 10 µM is on record?
Its inhibition at 10 µM is 8.79%.
